The pIC50 is −log10 of the IC50, conventionally taken in molar units. As usually defined, the melting point is the temperature, or range, at which the solid turns liquid.

The structures appear in SMILES notation. pIC50: −log10 of the molar value. Where “and” joins values, the source holds several entries; their conditions need not be identical. Identical values can stand only once.

For data set [1], the system named is L6 cells rat skeletal myoblasts. In words: Cytotoxicity against L6 cells (Alamar Blue). Format: cell-based. To be noted: L6 rat skeletal myoblasts, 72 h; read-out: Cyt. L6 IC50. On the procedure: Assays were performed in 96-well microtiter plates, each well containing 100 μL of RPMI 1640 medium supplemented with 1% L-glutamine (200 mM) and 10% foetal bovine serum, and 4000 L6 cells (a […] cell line derived from rat skeletal myoblasts). Serial drug dilutions of 11 threefold dilution steps covering a range from 100 to 0.002 μg/mL were prepared. After 72 h of incubation, the plates were inspected under an inverted microscope to assure growth of the controls and sterile conditions. 10 μL of Alamar Blue solution was then added to each well and the plates incubated for another 2 h. Then, the plates were read with a Spectramax Gemini XS microplate fluorometer (Molecular Devices Cooperation, Sunnyvale, CA, USA) using an excitation wavelength of 536 nm and an emission wavelength of 588 nm. The IC50 values were calculated by linear regression from the sigmoidal dose inhibition curves using the microplate reader software, Softmax Pro (Molecular Devices Cooperation, Sunnyvale, CA, USA). Podophyllotoxin (Sigma P4405) was used as the control.
(In general: Alamar Blue is a resazurin reagent that responds to reducing activity.)

A further data set deals with CCRF-CEM leukemia cells. In words: XTT viability assay, CCRF-CEM. In kind it is cell-based. To be noted: Homo sapiens, 72 h, read-out: metabolic active cells in % of control. The procedure: (§1) Human CCRF-CEM leukemia and MDA-MB-231 breast cancer cells lines were kept in RPMI1640 medium (Gibco®, ThermoFisher Scientific Inc., New York, NY, USA), supplemented with 2 mM L-glutamine (Gibco®), 10% heat-inactivated foetal bovine serum (FBS, Gibco®), 100 units/mL Penicillin (PAA), and 100 µg/mL Streptomycin (Gibco®) (1% Pen/Strep). HCT-116 and U251 cells were cultured in high-glucose Dulbecco’s Modified Eagle Medium (DMEM, Gibco®) containing 2 mM L-glutamine, 10% FBS, and 1% Pen/Strep. MRC-5 cells were grown in Minimum Essential Medium (MEM, Gibco®) supplemented with 2 mM L-glutamine, 10% FBS, and 1% Pen/Strep. All cells were kept in a humidified 5% CO2 atmosphere at 37 °C and passaged at 90% confluence.
(§2) A Cell Proliferation Kit II (XTT) was purchased from Sigma-Aldrich and performed as described previously and in accordance with the manufacturer’s protocol. In brief, adherent cell lines were seeded at a density of 50,000 cells/mL or 100,000 cells/mL (MRC-5) in 96 well plates (100 µL, flat bottom) and grown for 24 h before test compounds were added. Suspension cells (CCRF-CEM) were seeded at 100,000 cells/mL and test compounds were added immediately. After 72 h, XTT solution was added for another 90 min or 4 h (CCRF-CEM cells) and absorbance was measured at 490 nm with a reference wave length of 650 nm (Hidex Sense Microplate Reader 425-301, Hidex, Turku, Finland). Results are expressed as a percentage of the vehicle-treated (0.5% DMSO) control cells. Vinblastine served as the positive control (0.01 µg/mL).
On the technique in general: Tetrazolium dyes change colour on reduction, which living cells bring about.

In data set [2] the test system is MDA-MB-231 breast cancer cells. In words: XTT viability assay, MDA-MB-231. In kind it is cell-based. The following applies: Homo sapiens, 72 h, read-out: metabolic active cells in % of control; for viability at 5 µg/mL: MDA-MB-231, 5 µg/mL; for viability at 50 µg/mL: MDA-MB-231, 50 µg/mL. On the procedure:
as §1, §2

A further data set relates to U251 glioblastoma cells. Kind of data set: XTT viability assay, U251. To be noted: Homo sapiens, U-251, 72 h, read-out: metabolic active cells in % of control; for viability at 5 µg/mL: U251, 5 µg/mL; for viability at 50 µg/mL: U251, 50 µg/mL. Format: cell-based. The procedure:
as §1, §2

In turn, `O=C1C=CC(O)(CCN2C(=O)C=CC2=O)C=C1` [Compound 13b, N-[2-(1-Hydroxy-4-oxocyclohexa-2,5-dien-1-yl)ethyl]maleimide] yielded a melting point of 151 to 152 °C. The pIC50 in data set [1] was 4.57. In the data set with CCRF-CEM leukemia cells, the viability at 5 µg/mL was -1.08% and the viability at 50 µg/mL stood at 3.46%. Further, in data set [2], the viability at 5 µg/mL worked out at 1.71% and the viability at 50 µg/mL was 6.61%. In the data set on U251 glioblastoma cells, the viability at 5 µg/mL stood at 95.2% and the viability at 50 µg/mL was -0.41%.
`O=C1C=CC(O)(CCN2C(=O)c3cccnc3C2=O)C=C1` [Compound 13f, N-[2-(1-Hydroxy-4-oxocyclohexa-2,5-dien-1-yl)ethyl]pyridine-2,3-dicarboximide] gave a melting point of 167 to 168 °C. For the same molecule, the negative-log IC50 (pIC50) in data set [1] is 3.81. Moreover, in the data set with CCRF-CEM leukemia cells, the viability at 5 µg/mL turned out to be 99.8% and the viability at 50 µg/mL stood at 21.7%. In addition, in data set [2], the viability at 5 µg/mL stood at 112% and the viability at 50 µg/mL is 23%. In addition, in the data set with U251 glioblastoma cells, the viability at 5 µg/mL was found to be 91.8% and the viability at 50 µg/mL was 93.7%.
In the case of `O=C1C=CC(O)(CCN2C(=O)COCC2=O)C=C1` [Compound 13g, N-[2-(1-Hydroxy-4-oxocyclohexa-2,5-dien-1-yl)ethyl]morpholine-3,5-dione], the melting point was in the range of 142 to 143 °C. Besides, the negative logarithm of the IC50 (pIC50) in data set [1] is 4.11. In the data set with CCRF-CEM leukemia cells, the viability at 5 µg/mL amounted to 86.9% and the viability at 50 µg/mL worked out at 8.05%. For the same molecule, in data set [2], the viability at 5 µg/mL was determined as 104% and the viability at 50 µg/mL was 7.63%. Moreover, in the data set on U251 glioblastoma cells, the viability at 5 µg/mL turned out to be 94.7% and the viability at 50 µg/mL worked out at 65.6%.
Take `O=C1C=CC(O)(CCN2C(=O)C3=C(CCCC3)C2=O)C=C1` [Compound 13i, N-[2-(1-Hydroxy-4-oxocyclohexa-2,5-dien-1-yl)ethyl]-3,4,5,6-tetrahydrophthalimide]: the negative logarithm of the IC50 (pIC50) in data set [1] was 5.45. Besides, the viability at 5 µg/mL with CCRF-CEM leukemia cells is 2.26%; in data set [2], 32.4%; in the data set with U251 glioblastoma cells, 15.9%. In addition, the viability at 50 µg/mL amounted to 1.23% with CCRF-CEM leukemia cells, 16.6% in data set [2] and 0% with U251 glioblastoma cells.
`O=C1C=CC(O)(CCN2C(=O)C3CC=CCC3C2=O)C=C1` (stereo not shown) [Compound 13j, N-[2-(1-Hydroxy-4-oxocyclohexa-2,5-dien-1-yl)ethyl]-1,2,3,6-tetrahydrophthalimide] returned a melting point of 145 to 146 °C. Besides, in data set [1], the negative logarithm of the IC50 (pIC50) was 5.09. In addition, in the data set with CCRF-CEM leukemia cells, the viability at 5 µg/mL was 89.9% and the viability at 50 µg/mL stood at 15.4%. In data set [2], the viability at 5 µg/mL came to 87.7% and the viability at 50 µg/mL was 89%. Further, in the data set on U251 glioblastoma cells, the viability at 5 µg/mL came out at 96.5% and the viability at 50 µg/mL worked out at 76.7%.
Turning to `O=C1C=CC(O)(CCN2Cc3ccccc3C2)C=C1` [Compound 14a, N-[2-(1-Hydroxy-4-oxocyclohexa-2,5-dien-1-yl)ethyl]isoindoline], the melting point is 103 to 104 °C and 103 °C. Further, in data set [1], the pIC50 is 5.55. Besides, in the data set with CCRF-CEM leukemia cells, the viability at 5 µg/mL was determined as 94.6% and the viability at 50 µg/mL was 58%. For the same molecule, in data set [2], the viability at 5 µg/mL amounted to 95% and the viability at 50 µg/mL was found to be 92.5%. Besides, in the data set with U251 glioblastoma cells, the viability at 5 µg/mL was 99.5% and the viability at 50 µg/mL came to 95.5%.
Consider `O=C1C=CC(O)(CCN2CCOCC2)C=C1` [Compound 14c, N-[2-(1-Hydroxy-4-oxocyclohexa-2,5-dien-1-yl)ethyl]morpholine], for which the melting point lay in the range of 98 to 99 °C. In addition, the pIC50 in data set [1] was 5.46. In the data set on CCRF-CEM leukemia cells, the viability at 5 µg/mL amounted to 22.8% and the viability at 50 µg/mL was -0.18%. Also, in data set [2], the viability at 5 µg/mL stood at 56.8% and the viability at 50 µg/mL was 4.33%. Also, in the data set on U251 glioblastoma cells, the viability at 5 µg/mL stood at 68.3% and the viability at 50 µg/mL came to 1.11%.

Values taken from article PMC6278284, “Synthesis of Jacaranone-Derived Nitrogenous Cyclohexadienones and Their Antiproliferative and Antiprotozoal Activities” (Molecules, 2018).
